The results in this text go back to paper PMC12150604, “Exploring structure–activity relationships of pyrrolyl diketo acid derivatives as non-nucleoside inhibitors of terminal deoxynucleotidyl transferase enzyme” (Journal of Enzyme Inhibition and Medicinal Chemistry, 2025).

This assay has as its target T1, human TdT (Homo sapiens, UniProt P04053).
T1 construct: purchased Trevigen (Gaithersburg, MD)
Kind of assay: Terminal transferase assay, TdT. The class given is biochemical. Conditions: for IC50: human TdT. How it is done: Recombinant full-length human DNA polymerase λ and β were generated and purified as described. After purification, the protein was >90% homogeneous, as judged by sodium dodecyl sulphate (SDS)−polyacrylamide gel electrophoresis (PAGE) and Coomassie staining. TdT was from Trevigen (Gaithersburg, MD).
Terminal Transferase Assay. DNA polymerase λ and TdT terminal transferase activities were assayed in a final volume of 25 μL containing 50 mM Tris-HCl (pH 7.0), 0.25 mg/mL BSA, 1 mM DTT, 0.2 μM ss 30mer (AAC)10 DNA oligonucleotide, 25 μM [3H]dNTPs (10 Ci/mmol) and 0.5 mM MnCl2 or 5 mM MgCl2 used as cofactors. Terminal transferase activity was monitored in the presence of 10% DMSO or in the presence of increasing amounts of inhibitors dissolved in DMSO. All reactions were incubated for 10 min at 37 °C and the DNA precipitated with 10% trichloroacetic acid. Insoluble radioactive material was determined by scintillation counting using Trilux beta-counter (PerkinElmer) as described.
Dose − response curves were generated by computer fitting of the data to the equation E(%) = Emax/(1 + I/ID50) where E(%) is the fraction of enzyme’s activity measured in the presence of the inhibitor, Emax is the activity in the absence of the inhibitor, I is the inhibitor concentration, and ID50 is the inhibitor concentration at which E(%) = 0.5 Emax. ID50 values were generated using GraphPad Prism 6.

The mark [1] stands for this setting: Mn2+ as cofactor, read-out: ID50 (µM) Mn2+.
Where [2] appears, read: Mg2+ as cofactor, read-out: ID50 (µM) Mg2+.

Values joined by “and” are separate entries in the source; they are usually repeats but may differ in a detail not shown here. Equal entries are not always repeated. Where two headings read alike, the source gives them in different places.

T1 sequence (P04053 whole entry): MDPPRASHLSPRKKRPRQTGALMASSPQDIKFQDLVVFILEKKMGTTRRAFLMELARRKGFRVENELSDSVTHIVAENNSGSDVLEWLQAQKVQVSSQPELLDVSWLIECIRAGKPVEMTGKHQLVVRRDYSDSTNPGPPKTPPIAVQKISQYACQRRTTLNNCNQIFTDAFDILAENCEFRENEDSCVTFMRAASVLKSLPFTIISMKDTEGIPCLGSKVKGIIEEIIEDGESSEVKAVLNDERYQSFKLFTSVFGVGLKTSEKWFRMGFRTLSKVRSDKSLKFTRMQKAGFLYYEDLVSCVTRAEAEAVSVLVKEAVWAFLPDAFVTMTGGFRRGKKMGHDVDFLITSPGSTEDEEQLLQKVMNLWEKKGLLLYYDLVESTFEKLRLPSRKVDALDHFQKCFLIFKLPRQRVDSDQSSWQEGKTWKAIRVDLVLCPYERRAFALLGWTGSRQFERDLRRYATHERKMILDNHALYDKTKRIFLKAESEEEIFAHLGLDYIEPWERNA

As for `CCOC(=O)/C(O)=C/C(=O)/C=C/c1cccn1Cc1ccc(F)cc1` [Compound 5a, Ethyl (2Z,5E)-6-(1-(4-fluorobenzyl)-1H-pyrrol-2-yl)-2-hydroxy-4-oxohexa-2,5-dienoate], the IC50 under setting [1] was more than 50 µM.

`CCOC(=O)/C(O)=C/C(=O)/C=C/c1cc(-c2ccccc2)cn1Cc1ccc(F)cc1` [Compound 5b, Ethyl (2Z,5E)-6-(1-(4-fluorobenzyl)-4-phenyl-1H-pyrrol-2-yl)-2-hydroxy-4-oxohexa-2,5-dienoate]: the IC50 under setting [1] was more than 50 µM.

Turning to `CCOC(=O)/C(O)=C/C(=O)/C=C/c1cc(C(=O)c2ccc3c(c2)OCCO3)cn1Cc1ccc(F)cc1` [Compound 5c], the IC50 under setting [1] is more than 50 µM.

`CCOC(=O)/C(O)=C/C(=O)/C=C/c1cc(C(=O)c2ccc(OCc3ccc4ccccc4c3)cc2)cn1Cc1ccc(F)cc1` [Compound 5d]: the IC50 by setting is: under setting [2], 5.83 ± 1.76 µM; under setting [1], more than 50 µM.

Consider `CCOC(=O)/C(O)=C\C(=O)/C=C/c1cc(C(=O)c2ccc([N+](=O)[O-])cc2)cn1Cc1ccc(F)cc1` [Compound 5f], for which the IC50 reads like this: under setting [2], 6.54 ± 0.78 µM; under setting [1], more than 50 µM.

On to `CCOC(=O)/C(O)=C/C(=O)/C=C/c1cc(C(=O)c2ccc(NC(=O)c3ccc(OC)c(Br)c3)cc2)cn1Cc1ccc(F)cc1` [Compound 5g], for which the IC50 under setting [2] turned out to be 0.91 ± 0.36 µM and the IC50 under setting [1] is more than 50 µM.

For the compound `CCOC(=O)/C(O)=C/C(=O)/C=C/c1cc(C(=O)c2ccccc2)cn1Cc1cccc2ccccc12` [Compound 5j], the IC50 under setting [2] came out at 3.68 ± 1 µM and the IC50 under setting [1] was more than 50 µM.

As for `CCOC(=O)/C(O)=C/C(=O)/C=C/c1cc(C(=O)c2cc(OC)c(OC)c(OC)c2)c[nH]1` [Compound 5k], the “times lower potency than acid counterpart 6k” value (TdT, Mn2+, ratio of ID50) is recorded as 3 times. For the same compound, the IC50 is 10.6 ± 3.6 µM under setting [2] and 1.28 ± 0.27 µM under setting [1].

`CCOC(=O)/C(O)=C/C(=O)/C=C/c1cc(C(=O)c2ccccc2)c[nH]1` [Compound 5l, (2Z,5E)-ethyl 6-(4-benzoyl-1H-pyrrol-2-yl)-2-hydroxy-4-oxohexa-2,5-dienoate]: the IC50 is 37.8 µM and 35.8 µM under setting [2]; more than 50 µM under setting [1].

`CCOC(=O)/C(O)=C/C(=O)/C=C/c1cc(C(=O)c2ccccc2)cn1S(=O)(=O)c1ccc(F)cc1` [Compound 5m]: the IC50 came out at 3.87 ± 0.55 µM under setting [2] and 8.75 ± 0.35 µM under setting [1].

As for `O=C(/C=C(\O)C(=O)O)/C=C/c1cccn1Cc1ccc(F)cc1` [Compound 6a, (2Z,5E)-6-(1-(4-fluorobenzyl)-1H-pyrrol-2-yl)-2-hydroxy-4-oxohexa-2,5-dienoic acid], the “times higher activity than 4-phenyl counterpart 6b” value (TdT, Mn2+, ratio of ID50) turned out to be 4 times. Moreover, the “times more active than the hit compound 2” value (TdT, Mn2+, ratio of ID50) is given as “about 6 times”. In addition, the IC50 runs as follows: under setting [2], more than 50 µM; under setting [1], 1.63 ± 0.35 µM.

On to `O=C(/C=C(\O)C(=O)O)/C=C/c1cc(-c2ccccc2)cn1Cc1ccc(F)cc1` [Compound 6b, (2Z,5E)-6-(1-(4-fluorobenzyl)-4-phenyl-1H-pyrrol-2-yl)-2-hydroxy-4-oxohexa-2,5-dienoic acid], for which the IC50 runs as follows: under setting [2], more than 50 µM; under setting [1], 6.9 ± 2.5 µM.

For `O=C(/C=C(\O)C(=O)O)/C=C/c1cc(C(=O)c2ccc3c(c2)OCCO3)cn1Cc1ccc(F)cc1` [Compound 6c], the IC50 under setting [1] came to 4.07 ± 0.81 µM.

Turning to `O=C(/C=C(\O)C(=O)O)/C=C/c1cc(C(=O)c2ccc(OCc3ccc4ccccc4c3)cc2)cn1Cc1ccc(F)cc1` [Compound 6d], the IC50 by setting is: under setting [2], 12.8 ± 4.2 µM; under setting [1], more than 50 µM.

As to `O=C(/C=C/c1cc(C(=O)c2ccc([N+](=O)[O-])cc2)cn1Cc1ccc(F)cc1)/C=C(/O)C(=O)O` [Compound 6f], the IC50 worked out at 0.64 ± 0.25 µM under setting [2] and 7.71 ± 2.4 µM under setting [1].

As for `COc1ccc(C(=O)Nc2ccc(C(=O)c3cc(/C=C/C(=O)/C=C(\O)C(=O)O)n(Cc4ccc(F)cc4)c3)cc2)cc1Br` [Compound 6g], the IC50 is 0.41 ± 0.03 µM under setting [2] and more than 50 µM under setting [1].

For `O=C(/C=C(\O)C(=O)O)/C=C/c1cc(C(=O)c2ccccc2)cn1Cc1cccc2ccccc12` [Compound 6j], the IC50 is 2.11 ± 0.5 µM under setting [2] and more than 50 µM under setting [1].

With `COc1cc(C(=O)c2c[nH]c(/C=C/C(=O)/C=C(\O)C(=O)O)c2)cc(OC)c1OC` [Compound 6k], the IC50 reads like this: under setting [2], 0.86 ± 0.14 µM; under setting [1], 0.38 ± 0.06 µM.

`O=C(/C=C(\O)C(=O)O)/C=C/c1cc(C(=O)c2ccccc2)c[nH]1` [Compound 6l, (2Z,5E)-6-(4-benzoyl-1H-pyrrol-2-yl)-2-hydroxy-4-oxohexa-2,5-dienoic acid]: the IC50 runs as follows: under setting [2], 0.22 ± 0.01 µM; under setting [1], 0.3 ± 0.13 µM.

For the compound `O=C(/C=C(\O)C(=O)O)/C=C/c1cc(C(=O)c2ccccc2)cn1S(=O)(=O)c1ccc(F)cc1` [Compound 6m], the IC50 is, setting by setting: under setting [2], 0.34 ± 0.01 µM; under setting [1], 0.33 ± 0.05 µM.

Take `CCOC(=O)/C(O)=C/C(=O)/C=C/c1ccn(Cc2ccc(F)cc2)c1` [Compound 7a, Ethyl (2Z,5E)-6-(1-(4-fluorobenzyl)-1H-pyrrol-3-yl)-2-hydroxy-4-oxohexa-2,5-dienoate]: the IC50 under setting [1] is more than 50 µM.

On to `CCOC(=O)/C(O)=C/C(=O)/C=C/c1cn(Cc2ccc(F)cc2)cc1-c1ccccc1` [Compound 7b, Ethyl (2Z,5E)-6-(1-(4-fluorobenzyl)-4-phenyl-1H-pyrrol-3-yl)-2-hydroxy-4-oxohexa-2,5-dienoate], for which the IC50 under setting [1] was 2.72 ± 0.73 µM.

On to `CCOC(=O)/C(O)=C/C(=O)/C=C/c1c[nH]cc1-c1ccccc1` [Compound 7c], for which the IC50 runs as follows: under setting [2], 10.5 ± 3.6 µM; under setting [1], more than 50 µM.

Regarding `CCOC(=O)/C(O)=C/C(=O)/C=C/c1c[nH]cc1-c1cc(OC)c(OC)c(OC)c1` [Compound 7d], the IC50 by setting is: under setting [2], 21.3 ± 5.05 µM; under setting [1], more than 50 µM.

For `O=C(/C=C(\O)C(=O)O)/C=C/c1ccn(Cc2ccc(F)cc2)c1` [Compound 8a, (2Z,5E)-6-(1-(4-fluorobenzyl)-1H-pyrrol-3-yl)-2-hydroxy-4-oxohexa-2,5-dienoic acid], under setting [1], the IC50 is 6.31 ± 2.8 µM.

Regarding `O=C(/C=C(\O)C(=O)O)/C=C/c1cn(Cc2ccc(F)cc2)cc1-c1ccccc1` [Compound 8b, (2Z,5E)-6-(1-(4-fluorobenzyl)-4-phenyl-1H-pyrrol-3-yl)-2-hydroxy-4-oxohexa-2,5-dienoic acid], under setting [1], the IC50 amounted to 0.66 ± 0.12 µM.

As for `O=C(/C=C(\O)C(=O)O)/C=C/c1c[nH]cc1-c1ccccc1` [Compound 8c], the “improvement in inhibitory activity in respect to hit compound 4” value (TdT) is given as “higher than 3 times”. Besides, the IC50 under setting [1] came to 0.19 ± 0.08 µM.

`COc1cc(-c2c[nH]cc2/C=C/C(=O)/C=C(\O)C(=O)O)cc(OC)c1OC` [Compound 8d]: the IC50 amounted to 0.24 ± 0.03 µM under setting [2] and 0.23 ± 0.03 µM under setting [1].

For the compound `CCOC(=O)/C(O)=C/C(=O)c1cccn1Cc1ccc(F)cc1` [Compound 9a, Ethyl (Z)-4-(1-(4-fluorobenzyl)-1H-pyrrol-2-yl)-2-hydroxy-4-oxobut-2-enoate], the IC50 under setting [1] was more than 50 µM.

Consider `CCOC(=O)/C(O)=C/C(=O)c1cc(-c2ccccc2)cn1Cc1ccc(F)cc1` [Compound 9b, Ethyl (Z)-4-(1-(4-fluorobenzyl)-4-phenyl-1H-pyrrol-2-yl)-2-hydroxy-4-oxobut-2-enoate], for which the IC50 under setting [1] is more than 50 µM.

For the compound `O=C(O)/C(O)=C/C(=O)c1cccn1Cc1ccc(F)cc1` [Compound 10a, (Z)-4-(1-(4-fluorobenzyl)-1H-pyrrol-2-yl)-2-hydroxy-4-oxobut-2-enoic acid], under setting [1], the IC50 was 1.16 ± 0.35 µM.
